For two compounds, AUC(0-t) results are on record in ChEMBL document CHEMBL2202982, “Synthesis and SAR development of novel mGluR1 antagonists for the treatment of chronic pain” (Bioorg Med Chem Lett, 2012).

This series is described as follows: in vivo. The settings on record: rat, po.

Take `Cc1ccc(-n2cnc3c(sc4ncnc(NC5CC5)c43)c2=O)cc1`: the AUC(0-t) (in general, exposure summed from dosing to a finite time, without extrapolation to infinity) at 6 h is 0.89 µM·h.
For `COc1ccc(-n2cnc3c(sc4ncnc(NC5CC5)c43)c2=O)cc1F` the value was 8.6 µM·h.
